Results taken from patent US11203615B2, “Cancer treatment drug” (NATIONAL UNIVERSITY CORPORATION HOKKAIDO UNIVERSITY, priority 2017, dated 2021).
Values belong to the compound of their own block, whether it stands above or below them. Residues, ends and D or L forms follow the SMILES beside them.

Key:
[1] = target: T1, C16orf74 protein dimer (Homo sapiens, UniProt Q96GX8); experiment: Inhibition of dimer formation of C16orf74 protein in human pancreatic cancer cells and NHDFs (FIG. 3); format: cell-based; set-up: PK-1 and PK-9 (C16orf14 high expression) are compared to Panc1 and Miapaca2 (low expression); endogenous in cells; host or cells: PK-1, PK-9, Panc-1, Miapaca-2, NHDF
T1 sequence (Q96GX8 whole entry): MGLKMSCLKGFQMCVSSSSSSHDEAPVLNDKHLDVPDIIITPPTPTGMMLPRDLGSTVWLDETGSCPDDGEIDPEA
Procedure: The same experiment as the above (3) was conducted by using the peptide RRRRRRRRRRR-GGG-MGLKMSCLKGFQMCV (SEQ ID NO: 4) (represented as 11R-C16orf74-DB in FIG. 3(a)), the peptide RRRRRRRRRRR-GGG-MGLKMSALKGFQMAV (SEQ ID NO: 7) (represented as 11R-C16orf74 C7A-C14A in FIG. 3(b)), and the peptide RRRRRRRRRRR-GGG-MGLKMAAAKGFQAAA (SEQ ID NO: 8) (represented as 11R-C16orf74-6-8A-13-15A in FIG. 3(c)) with different concentrations to examine inhibition of the dimer formation of C16orf74 protein. For the cells, four types of human pancreatic cancer cells (PK-1, PK-9, Panc-1, Miapaca-2) and normal human dermal fibroblasts (NHDFs) were used. The results are shown in FIGS. 3(a), 3(b), and 3(c), which are 24 hour WST assays in which PK-1 and PK-9 (C16orf14 high expression) are compared to Panc1 and Miapaca2 (low expression). A p-value of p<0.05 was obtained at 30 μM.

[2] = test system: Human pancreatic cancer cells (PK-9); experiment: Tumor growth in nude mice with PK-9 cells transplanted on the back, intraperitoneal administration; format: in vivo, nude mouse; conditions: i.p. five times per week, day 7 to day 35 after transplantation
Procedure: Human pancreatic cancer cells (PK-9) were transplanted to the back of each nude mouse (Balb/cA Jcl nu/nu mice, female, distributor: CLEA Japan, Inc.). The peptide of the present invention RRRRRRRRRRR-GGG-MGLKMSCLKGFQMCV (SEQ ID NO: 4), the peptide RRRRRRRRRRR-GGG-MGLKMAAAKGFQAAA (SEQ ID NO: 8), or PBS was intraperitoneally administered five times per week from day 7 to day 35 after the transplantation. During this period, body weight and tumor volume of the animals were measured, and fluorescence images were taken. On day 35 after the transplantation, tumor was resected, and the weight was measured. […] The mean tumor weight was approximately 50 mg for the group with administration of the peptide of the present invention (represented as DB in FIG. 6), and, by contrast, approximately 100 mg to 110 mg for the other two groups.

[3] = target: T1, C16orf74 protein dimer; experiment: Inhibition of dimer formation of C16orf74 protein, pull-down assay in cotransfected HEK293T cells; format: cell-based; conditions: 40 μM peptide, 24 hours
Procedure: Pull-down assay was used for this verification. HEK293T cells were cotransfected with a vector to express a protein of Flag-tagged C16orf74 protein (pCAGGS-C16orf74-3×Flag) and a vector to express a protein of HA-tagged C16orf74 protein (pCAGGS-C16orf74-HA), and 24 hours thereafter a cell lysate was obtained and immunoprecipitation was carried out with agarose beads with an HA antibody attached thereto. The resulting immunoprecipitate was subjected to electrophoresis, and blotted with a Flag antibody. Experiment was conducted in three parallel systems. In the figure, MOCK represents a case that empty vectors of pCAGGS were provided with a Flag tag and an HA tag and HEK293T cells were cotransfected therewith. A band of the Flag-tagged C16orf74 protein was found at an intended level ([…]).
HEK293T cells were transfected with pCAGGS-C16orf74-3×Flag and pCAGGS-C16orf74-HA, and cultured in the presence and absence of 40 μM of the peptide RRRRRRRRR-GGG-MGLKMSCLKGFQMCV (SEQ ID NO: 6) for 24 hours, and thereafter a band of the dimer was detected in the same manner as descried in (1).

[4] = test system: PK-9 cells; experiment: Tumor growth in nude mice with subcutaneously injected PK-9 cells, peritumoral subcutaneous injection; format: in vivo; conditions: 10 mg/kg/mouse s.c. near tumor five times per week, 3 weeks
Procedure: PK-9 cells were injected into the back of each nude mouse (Balb/cA Jcl nu/nu mice, female, distributor: CLEA Japan, Inc.). Two weeks after the injection, the peptide of the present invention RRRRRRRRRRR-GGG-MGLKMSCLKGFQMCV (SEQ ID NO: 4), the peptide RRRRRRRRRRR-GGG-MGLKMAAAKGFQAAA (SEQ ID NO: 8), or PBS was injected into the subcutaneous tissue in the vicinity of tumor five times per week (10 mg/kg/mouse). The administration period was 3 weeks. At the end of the administration period, tumor was resected and the tumor weight was measured. […] The mean tumor weight of the group with administration of the peptide of the present invention (SEQ ID NO: 4) was approximately 250 mg (group 11R-DB in FIG. 8).

[5] = test system: PK-9 cells expressing luciferase (PK-9-td Tomato-luc2); experiment: Tumor survival and nodulation in nude mice with peritoneally disseminated PK-9-td Tomato-luc2 cells; format: in vivo; conditions: 1 mg/kg/mouse five times per week, day 0 to day 35; imaging days 3-35
Procedure: PK-9 cells expressing luciferase (PK-9-td Tomato-luc2) were intraperitoneally injected into each nude mouse (Balb/cA Jcl nu/nu mice, female, distributor: CLEA Japan, Inc.). During a period from the day of the peritoneal dissemination to day 35, the peptide of the present invention RRRRRRRRRRR-GGG-MGLKMSCLKGFQMCV (SEQ ID NO: 4), the peptide RRRRRRRRRRR-GGG-MGLKMAAAKGFQAAA (SEQ ID NO: 8), or PBS was injected into the subcutaneous tissue in the vicinity of tumor five times per week (1 mg/kg/mouse). On days 3, 7, 14, 21, 28, and 35 after the peritoneal dissemination, tumor was imaged. The number of nodules was counted at the end of the peptide administration period.

inhibition at 40 µM ([1]; MIA PaCa-2, Miapaca2 cells): ≥ 60% | inhibition at 40 µM ([1]; PANC-1, Panc1 cells): ≥ 60% | inhibition at 30 µM ([1]; PK9, PK-9 cells): ~60% | inhibition at 30 µM ([1]; PK-1 cells): ~60%
Compound: CSCC[C@H](NC(=O)CNC(=O)CNC(=O)CNC(=O)[C@H](CCCNC(=N)N)NC(=O)[C@H](CCCNC(=N)N)NC(=O)[C@H](CCCNC(=N)N)NC(=O)[C@H](CCCNC(=N)N)NC(=O)[C@H](CCCNC(=N)N)NC(=O)[C@H](CCCNC(=N)N)NC(=O)[C@H](CCCNC(=N)N)NC(=O)[C@H](CCCNC(=N)N)NC(=O)[C@H](CCCNC(=N)N)NC(=O)[C@H](CCCNC(=N)N)NC(=O)[C@@H](N)CCCNC(=N)N)C(=O)NCC(=O)N[C@@H](CC(C)C)C(=O)N[C@@H](CCCCN)C(=O)N[C@@H](CCSC)C(=O)N[C@@H](CO)C(=O)N[C@@H](CS)C(=O)N[C@@H](CC(C)C)C(=O)N[C@@H](CCCCN)C(=O)NCC(=O)N[C@@H](Cc1ccccc1)C(=O)N[C@@H](CCC(N)=O)C(=O)N[C@@H](CCSC)C(=O)N[C@@H](CS)C(=O)N[C@H](C(=O)O)C(C)C [SEQ ID NO: 4, RRRRRRRRRRR-GGG-MGLKMSCLKGFQMCV] (H-RRRRRRRRRRRGGGMGLKMSCLKGFQMCV-OH)
body weight of the animals [2]: exhibited a higher increasing tendency than the other administration groups

inhibition of dimer formation of C16orf74 protein (band of the dimer) [3]: the dimer formation was inhibited
Compound: RRRRRRRRR-GGG-MGLKMSCLKGFQMCV (RRRRRRRRRGGGMGLKMSCLKGFQMCV; fusion peptide) [SEQ ID NO: 6, C16orf74 N-terminal 15 amino acids bonded to 9-arginine signal via a GGG tag]

Compound: RRRRRRRRRRR-GGG-MGLKMAAAKGFQAAA (RRRRRRRRRRRGGGMGLKMAAAKGFQAAA; fusion peptide) [SEQ ID NO: 8, control peptide, cysteines 7 and 14 and their neighbouring residues converted into alanine]
inhibition of the dimer formation ([1]; any of the cells (PK-1, PK-9, Panc-1, Miapaca-2, NHDFs)): no inhibition of the dimer formation was found | course of tumor volume [4]: the tumor volume increased | change over time in tumor fluorescence intensity [2]: exhibited increase in fluorescence intensity | survival of tumor cells (tumor imaging) [5]: The survival of tumor cells was not suppressed

Compound: RRRRRRRRRRR-GGG-MGLKMSALKGFQMAV (RRRRRRRRRRRGGGMGLKMSALKGFQMAV; fusion peptide) [SEQ ID NO: 7, control peptide, cysteine residues at 7th and 14th positions converted into alanine]
inhibition of the dimer formation ([1]; PK-1 and PK-9 cells): the inhibition was weaker than in using 11R-C16orf74-DB | inhibition of the dimer formation ([1]; Panc1, Miapaca2 and NHDFs): Almost no inhibition of the dimer formation was found
